Assay results published in patent publication US5888504A, “Natural composition for combatting fungi” (Van den Bergh Foods Co., Division of Conopco, Inc., priority 1995, dated 1999).
Entries after “also recorded” stand apart in the source; their conditions may differ.

Assays:
Type in all cases: cell-based
Paecilomyces variotii [1] = experiment: Extent of outgrowth of Paecilomyces variotii in malt extract broth in serum bottles; conditions: 1 μM carvacrol, absence of enzyme; observed during ten days
Method: Solutions (30 ml) were prepared containing […] dissolved in malt extract broth. Novozyme™234 was present in concentrations of 1, 0.1 and 0 mg/ml. For comparison a solution was prepared containing 1 mg/ml of Novozyme™, but without carvacrol and one in which both enzyme and carvacrol were absent. 50 ml serum bottles filled with the solutions were inoculated with 1000 spores of Paecilomyces variotii. The height of the bars of FIG. 5 indicates the extent of outgrowth of the fungi observed during ten days. The highest bars ("100") indicate full outgrowth of the fungi, which occurs in solutions without carvacrol and with 1 mg/ml or less enzyme. Observed growth inhibition is expressed by the "50" bars. The presence of 1 μM carvacrol causes inhibition of growth, even in the absence of enzyme. When 1 mg/ml of enzyme is present together with 1 μM of carvacrol even germination of the fungal spores ("25" bars) does no longer occurs.

Aspergillus niger = experiment: Outgrowth of Aspergillus niger spores in malt extract broth/agar, microtitre plate, OD 620 nm; conditions: no enzyme
Method: An aqueous solution (demineralised water) was prepared containing 0.2 wt. % of the antifungal substance NovoZyme™ 234 and 0.002 wt. % of nisin. 75 μl of the solution were warmed to 20° C. and added to the well of a microtitre plate. Then 75 μl of a solution containing 4 wt. % of malt extract broth (ex Oxoid), 0.75 wt. % of agar (ex Difco) and 1000 spores of the fungus Aspergillus niger was heated to 25° C. and added to the test solution in the well (pH 5.1).
The procedure was repeated with solutions containing 0.004, 0.008, 0.016, 0.032 and 0.064 wt. % of nisin. The contents of the wells were thoroughly mixed and 75 μl of paraffin oil was loaded on top of the mixture. Finally, the plates were sealed with an oxygen permeable foil (Merlin).
During 360 hours the OD 620 nm was measured at regular intervals using a Multiscan devise MCC 340. Fungal outgrowth was defined when an OD (optical density) increase of at least 0.1 occurred.
[…] 75 μl of the solution were warmed to 20° C. and added to the well of a microtitre plate. Then 75 μl of a solution containing 4 wt. % malt extract broth (ex Oxoid), 0.75 wt. % agar (ex Difco) and 1000 spores of the fungus Aspergillus niger was heated to 25° C. and added to the test solution in the well (pH 5.1). […] During 360 hours the OD 620 nm was measured at regular intervals using a Multiscan devise MCC 340. […]

Paecilomyces variotii [2] = experiment: Outgrowth of Paecilomyces variotii spores, microtitre plate (Example 2 repeated); conditions: histatin without enzyme
Method: An aqueous solution (demineralised water) was prepared containing 0.2 wt. % of the antifungal substance NovoZyme™ 234 and 0.002 wt. % of histatin. 75 μl of the solution were warmed to 20° C. and added to the well of a microtitre plate. Then 75 μl of a solution containing 4 wt. % malt extract broth (ex Oxoid), 0.75 wt. % agar (ex Difco) and 1000 spores of the fungus Aspergillus niger was heated to 25° C. and added to the test solution in the well (pH 5.1). The procedure was repeated with solutions containing 0.004, 0.008, 0.016, 0.032 and 0.064 wt. % of histatin. The contents of the wells were thoroughly mixed and 75 μl of paraffin oil was loaded on top of the mixture. Finally, the plates were sealed with an oxygen permeable foil (Merlin). During 360 hours the OD 620 nm was measured at regular intervals using a Multiscan devise MCC 340. Fungal outgrowth was defined when an OD increase of at least 0.1 occurred.
Example 2 is repeated with the fungus Paecilomyces variotii.

Penicillium roqueforti = experiment: Outgrowth of Penicillium roqueforti inoculated on processed cheese; conditions: nisin 0.05 wt. % or NovoZyme 234 2 wt. % singly
Description: The surface of processed cheese was inoculated in the centre with Penicillium roqueforti. Admixture of nisin of the lytic enzymes was done in a laminar air flow cabinet. The samples were observed during 16 days (see FIG. 7).
Fungal growth is expressed as the diameter of the colonies. When NovoZyme™ 234 (2 wt. %) was present fungal outgrowth was considerably delayed and became visible only after 12 days.

Cc1ccc(C(C)C)cc1O [carvacrol]
extent of outgrowth (height of bar) (Paecilomyces variotii [1]): 50

histatin
retarding fungal growth (time needed for outgrowth) (Aspergillus niger; histatin 0 to 0.032 wt. %, particularly at 0.008 wt. % and higher): slightly active in retarding fungal growth | concentration at which fungal growth inhibition is shown (Paecilomyces variotii [2]): ≥ 0.004 wt. %

nisin
effect on postponing the onset of fungal growth (time needed for outgrowth) (Aspergillus niger; nisin 0 to 0.032 wt. %, pH 5.1, followed 360 hours): no fungal growth inhibition has been observed; also recorded: no substantial effect | time after which fungal outgrowth showed (Penicillium roqueforti): 4 days
